From patent publication US4229375A (priority 1977, dated 1980)
Where a name gives a salt, the structure may show the parent alone.

How the values were obtained:
Newcastle disease virus = test: microbe, parasite or virus in culture; type: cell-based; conditions: for MIC: avian paramyxovirus 1, in Gallus gallus, 48 h, read-out: Minimum growth-inhibition concentration
in vitro = conditions: chicken, chick embryo fibroblast

Work on `Cl.NC12CCCC(C1)C1CCC2C1` (stereo not shown) [1-Aminotricyclo-[4.3.1.1^2,5]undecane hydrochloride, reference compound] yielded an MIC (Newcastle disease virus) of 87 µg/mL and an MCC at 48 h (in vitro) of 87 µg/mL.

With `NC12CC3CC(CC(C3)C1)C2` [Adamantylamine hydrochloride, reference compound] the MIC (Newcastle disease virus) was 250 µg/mL and the MCC at 48 h (in vitro) was 250 µg/mL.

In the case of `NCC12CCCC(C1)C1CCC2C1` (stereo not shown) [compound of the formula (I), 1-aminomethyltricyclo[4.3.1.1^2,5]undecane], the “inhibitory effect on the growth of viruses (in words)” value (Newcastle disease virus; compared with 1-aminotricyclo[4.3.1.1^2,5 ]undecane) is reported as “inhibitory effect on the growth of viruses at a lower concentration than the earlier compound”, the “inhibitory effect on the growth of Newcastle disease virus (in words)” value (Newcastle disease virus; in chick embryo fibroblasts) is reported as “excellent inhibitory effect” and the “fraction of the concentration of 1-aminotricyclo[4.3.1.1^2,5 ]undecane at which virus multiplication is inhibited” value (Newcastle disease virus; relative to 1-aminotricyclo[4.3.1.1^2,5 ]undecane, Newcastle disease virus in chick embryo fibroblasts) is reported as 1/2. For the same compound, the “fraction of the concentration of adamantylamine hydrochloride at which virus multiplication is inhibited” value (Newcastle disease virus; relative to adamantylamine hydrochloride, Newcastle disease virus in chick embryo fibroblasts) was “about 1/6”.

Compound `Cl.NCC12CCCC(C1)C1CCC2C1` (stereo not shown) [1-aminomethyltricyclo[4.3.1.1^2,5]undecane hydrochloride] has an MIC (Newcastle disease virus) of 40 µg/mL and an MCC at 48 h (in vitro) of 40 µg/mL.
